{
  "source": "paper PMC11435058",
  "about": "“Synthesis of New Thiazole-Privileged Chalcones as Tubulin Polymerization Inhibitors with Potential Anticancer Activities” (Pharmaceuticals, 2024)",
  "key": {"MCF7": {"system": "MCF7", "test": "NCI-60 anticancer screen (SRB; single dose and five doses)", "conditions": "Homo sapiens, MCF7, 48 h, read-out: Growth Percentage"}, "MOLT-4": {"system": "MOLT-4", "test": "NCI-60 anticancer screen (SRB; single dose and five doses)", "conditions": "Homo sapiens, MOLT-4, 48 h, read-out: Growth Percentage"}, "SK-MEL-2": {"system": "SK-MEL-2", "test": "NCI-60 anticancer screen (SRB; single dose and five doses)", "conditions": "Homo sapiens, SK-MEL-2, 48 h, read-out: Growth Percentage"}, "SF-268": {"system": "SF-268", "test": "NCI-60 anticancer screen (SRB; single dose and five doses)", "conditions": "Homo sapiens, SF-268, 48 h, read-out: Growth Percentage"}, "SW-620": {"system": "SW-620", "test": "NCI-60 anticancer screen (SRB; single dose and five doses)", "conditions": "Homo sapiens, SW-620, 48 h, read-out: Growth Percentage"}, "MALME-3M": {"system": "MALME-3M", "test": "NCI-60 anticancer screen (SRB; single dose and five doses)", "conditions": "Homo sapiens, 48 h, read-out: Growth Percentage"}, "[1]": {"system": "60 human tumor cell lines panel", "test": "NCI-60 anticancer screen, whole panel (means and ranges over the cell lines)", "assay_type": "cell-based", "conditions": "Homo sapiens, 48 h, dose of 10 μM"}, "U251": {"system": "U251", "test": "NCI-60 anticancer screen (SRB; single dose and five doses)", "conditions": "Homo sapiens, U-251, 48 h, read-out: Growth Percentage"}, "MDA-MB-231/ATCC": {"system": "MDA-MB-231/ATCC", "test": "NCI-60 anticancer screen (SRB; single dose and five doses)", "conditions": "Homo sapiens, MDA-MB-231, 48 h, read-out: Growth Percentage"}, "RXF 393": {"system": "RXF 393", "test": "NCI-60 anticancer screen (SRB; single dose and five doses)", "conditions": "Homo sapiens, RXF 393, 48 h, read-out: Growth Percentage"}, "UO-31": {"system": "UO-31", "test": "NCI-60 anticancer screen (SRB; single dose and five doses)", "conditions": "Homo sapiens, UO-31, 48 h, read-out: Growth Percentage"}, "HL-60(TB)": {"system": "HL-60(TB)", "test": "NCI-60 anticancer screen (SRB; single dose and five doses)", "conditions": "Homo sapiens, HL-60, 48 h, read-out: Growth Percentage"}, "CAKI-1": {"system": "CAKI-1", "test": "NCI-60 anticancer screen (SRB; single dose and five doses)", "conditions": "Homo sapiens, CAKI-1, 48 h, read-out: Growth Percentage"}, "HS 578T": {"system": "HS 578T", "test": "NCI-60 anticancer screen (SRB; single dose and five doses)", "conditions": "Homo sapiens, 48 h, read-out: Growth Percentage"}, "SF-539": {"system": "SF-539", "test": "NCI-60 anticancer screen (SRB; single dose and five doses)", "conditions": "Homo sapiens, SF-539, 48 h, read-out: Growth Percentage"}, "SK-MEL-5": {"system": "SK-MEL-5", "test": "NCI-60 anticancer screen (SRB; single dose and five doses)", "conditions": "Homo sapiens, SK-MEL-5, 48 h, read-out: Growth Percentage"}, "SNB-19": {"system": "SNB-19", "test": "cells", "conditions": "Homo sapiens, SNB-19, 48 h, read-out: Growth Percentage"}, "SK-OV-3": {"system": "SK-OV-3", "test": "NCI-60 anticancer screen (SRB; single dose and five doses)", "conditions": "Homo sapiens, SK-OV-3, 48 h, read-out: Growth Percentage"}, "OVCAR-8": {"system": "OVCAR-8", "test": "NCI-60 anticancer screen (SRB; single dose and five doses)", "conditions": "Homo sapiens, OVCAR-8, 48 h, read-out: Growth Percentage"}, "NCI-H522": {"system": "NCI-H522", "test": "NCI-60 anticancer screen (SRB; single dose and five doses)", "conditions": "Homo sapiens, NCI-H522, 48 h, read-out: Growth Percentage"}, "M14": {"system": "M14", "test": "NCI-60 anticancer screen (SRB; single dose and five doses)", "conditions": "Homo sapiens, M14, 48 h, read-out: Growth Percentage"}, "MDA-MB-468": {"system": "MDA-MB-468", "test": "NCI-60 anticancer screen (SRB; single dose and five doses)", "assay_type": "cell-based, human", "conditions": "Homo sapiens, 48 h; MDA-MB-468; dose of 10 μM; read-out: Growth Percentage", "outline": "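Readout was sulforhodamine B staining, read spectrophotometrically as percent growth against untreated controls. This followed a 48 h exposure to one 10μM dose across roughly 60 human tumor lines of the NCI screen.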"}, "IGROV1": {"system": "IGROV1", "test": "NCI-60 anticancer screen (SRB; single dose and five doses)", "conditions": "Homo sapiens, IGROV-1, 48 h, read-out: Growth Percentage"}, "UACC-62": {"system": "UACC-62", "test": "NCI-60 anticancer screen (SRB; single dose and five doses)", "conditions": "Homo sapiens, UACC-62, 48 h, read-out: Growth Percentage"}, "UACC-257": {"system": "UACC-257", "test": "NCI-60 anticancer screen (SRB; single dose and five doses)", "conditions": "Homo sapiens, UACC-257, 48 h, read-out: Growth Percentage"}},
  "note": "Where two headings read alike, the source gives them in different places.",
  "data": [
    {"compound": "COc1cccc(/C=C/C(=O)c2sc(=S)[nH]c2C)c1OC", "note": "[2m, (E)-3-(2,3-Dimethoxyphenyl)-1-(4-Methyl-2-Thioxo-2,3-Dihydrothiazol-5-yl)Prop-2-En-1-One]", "values": [
      {"measurement": "activity at 10 µM", "setting": "MCF7", "value": 16.6, "unit": "%"},
      {"measurement": "activity at 10 µM", "setting": "MOLT-4", "value": 36.8, "unit": "%"},
      {"measurement": "activity at 10 µM", "setting": "SK-MEL-2", "value": 94.2, "unit": "%"},
      {"measurement": "activity at 10 µM", "setting": "SF-268", "value": 54, "unit": "%"},
      {"measurement": "activity at 10 µM", "setting": "SW-620", "value": 47.9, "unit": "%"},
      {"measurement": "activity at 10 µM", "setting": "MALME-3M", "value": 97.1, "unit": "%"},
      {"measurement": "activity at 10 µM", "setting": "[1]; mean over the tested cell lines, read-out: Mean growth percentage", "value": 49.9, "unit": "%"},
      {"measurement": "activity at 10 µM", "setting": "[1]; range over the cell lines, read-out: growth percentages against most of the tested cells (lowest to highest)", "value": "5.15 to 109", "unit": "%"},
      {"measurement": "activity at 10 µM", "setting": "U251", "value": 20.3, "unit": "%"},
      {"measurement": "activity at 10 µM", "setting": "MDA-MB-231/ATCC", "value": 68.3, "unit": "%"},
      {"measurement": "activity at 10 µM", "setting": "RXF 393", "value": 52.5, "unit": "%"},
      {"measurement": "activity at 10 µM", "setting": "UO-31", "value": 53.7, "unit": "%"},
      {"measurement": "activity at 10 µM", "setting": "HL-60(TB)", "value": 12.7, "unit": "%"},
      {"measurement": "activity at 10 µM", "setting": "CAKI-1", "value": 41.9, "unit": "%"},
      {"measurement": "activity at 10 µM", "setting": "HS 578T", "value": 49.2, "unit": "%"},
      {"measurement": "activity at 10 µM", "setting": "SF-539", "value": 22.7, "unit": "%"},
      {"measurement": "activity at 10 µM", "setting": "SK-MEL-5", "value": 23.5, "unit": "%"},
      {"measurement": "activity at 10 µM", "setting": "SNB-19", "value": 37.2, "unit": "%"},
      {"measurement": "activity at 10 µM", "setting": "SK-OV-3", "value": 85.6, "unit": "%"},
      {"measurement": "activity at 10 µM", "setting": "OVCAR-8", "value": 44.6, "unit": "%"},
      {"measurement": "activity at 10 µM", "setting": "NCI-H522", "value": 32.9, "unit": "%"},
      {"measurement": "activity at 10 µM", "setting": "M14", "value": 54, "unit": "%"},
      {"measurement": "activity at 10 µM", "setting": "MDA-MB-468", "value": 41.1, "unit": "%"},
      {"measurement": "activity at 10 µM", "setting": "IGROV1", "value": 73.9, "unit": "%"},
      {"measurement": "activity at 10 µM", "setting": "UACC-62", "value": 45.5, "unit": "%"},
      {"measurement": "activity at 10 µM", "setting": "UACC-257", "value": 35.4, "unit": "%"}
    ]}
  ]
}
